Reference: ChEMBL document CHEMBL1157840, “Synthesis and the selective antifungal activity of 5,6,7,8-tetrahydroimidazo[1,2-a]pyridine derivatives” (Eur J Med Chem, 2010)
≈ marks a conversion by molar mass, not a printed value.

Assays:
Candida parapsilosis = assay: Antifungal activity against Candida parapsilosis NRRL Y-12696 after 24 hrs by broth microdilution assay; format: functional; details: Lodderomyces parapsilosis, NRRL Y-12696, 24 h
SK-MEL = assay: Cytotoxicity against human SK-MEL cells up to 25 ug/ml after 48 hrs by neutral red assay; format: cell-based
[Candida] zeylanoides = Antifungal activity against Candida zeylanoides NRRL Y-1774 after 24 hrs by broth microdilution assay; format: functional; details: Dujonia zeylanoides, NRRL Y-1774, 24 h
[1] = Cytotoxicity against african pig LLC-PK11 up to 25 ug/ml after 48 hrs by neutral red assay; design: species or system Sus scrofa
Candida tropicalis = assay: Antifungal activity against Candida tropicalis NRRL Y-12968 after 24 hrs by broth microdilution assay; format: functional; details: NRRL Y-12968, 24 h
BT-549 = assay: Cytotoxicity against human BT549 cells up to 25 ug/ml after 48 hrs by neutral red assay; format: cell-based; details: bt-549, 48 h
Candida albicans [2] = assay: Antifungal activity against Candida albicans NRRL Y-12983 after 24 hrs by broth microdilution assay; format: functional; details: NRRL Y-12983, 24 h
Pichia kudriavzevii = assay: Antifungal activity against Candida krusei NRRL Y-7179 after 24 hrs by broth microdilution assay; format: functional; details: NRRL Y-7179, 24 h
Candida albicans [3] = assay: Antifungal activity against Candida albicans clinical isolate after 24 hrs by broth microdilution assay; format: functional
Nakaseomyces glabratus [4] = assay: Antifungal activity against Candida glabrata clinical isolate 1 after 24 hrs by broth microdilution assay; format: functional; details: isolate 1, 24 h
Nakaseomyces glabratus [5] = assay: Antifungal activity against Candida glabrata clinical isolate 2 after 24 hrs by broth microdilution assay; format: functional
Candida albicans [6] = assay: Antifungal activity against Candida albicans ATCC 90028 after 24 hrs by broth microdilution assay; format: functional; details: ATCC 90028, 24 h
Vero = assay: Cytotoxicity against african green monkey Vero cells up to 25 ug/ml after 48 hrs by neutral red assay; format: cell-based; details: chlorocebus sabaeus
Cyberlindnera jadinii = assay: Antifungal activity against Candida utilis NRRL Y-900 after 24 hrs by broth microdilution assay; format: functional; details: Williopsis jadinii, NRRL Y-900, 24 h
SK-OV-3 = assay: Cytotoxicity against human SKOV3 cells up to 25 ug/ml after 48 hrs by neutral red assay; format: cell-based; details: sk-ov-3, 48 h

Compound | MIC (Candida parapsilosis) | Activity (SK-MEL) | MIC ([Candida] zeylanoides) | Activity [1] | MIC (Candida tropicalis) | Activity (BT-549) | MIC (Candida albicans [2]) | MIC (Pichia kudriavzevii) | MIC (Candida albicans [3]) | MIC (Nakaseomyces glabratus [4]) | MIC (Nakaseomyces glabratus [5]) | MIC (Candida albicans [6]) | Activity (Vero) | MIC (Cyberlindnera jadinii) | Activity (SK-OV-3)
Cc1ccc(/C=N/NC(=O)c2cn3c(n2)CCCC3)cc1 | 0.5 µg/mL (≈ 1.77 µM) | Non-toxic | > 0.25 µg/mL | Non-toxic | 0.125 µg/mL (≈ 0.443 µM) | Non-toxic | > 0.25 µg/mL | > 0.25 µg/mL | 0.032 µg/mL (≈ 0.113 µM) | > 0.25 µg/mL | > 0.25 µg/mL | > 0.25 µg/mL | Non-toxic | > 0.25 µg/mL | Non-toxic
CC(C)c1ccc(/C=N/NC(=O)c2cn3c(n2)CCCC3)cc1 | > 0.25 µg/mL | Non-toxic | > 0.25 µg/mL | Non-toxic | 0.125 µg/mL (≈ 0.403 µM) | Non-toxic | > 0.25 µg/mL | > 0.25 µg/mL | 0.125 µg/mL (≈ 0.403 µM) | > 0.25 µg/mL | 0.5 µg/mL (≈ 1.61 µM) | > 0.25 µg/mL | Non-toxic | > 0.25 µg/mL | Non-toxic
O=C(N/N=C/c1ccc([N+](=O)[O-])cc1)c1cn2c(n1)CCCC2 | 0.25 µg/mL (≈ 0.798 µM) | Non-toxic | 0.25 µg/mL (≈ 0.798 µM) | Non-toxic | 0.25 µg/mL (≈ 0.798 µM) | Non-toxic | 0.25 µg/mL (≈ 0.798 µM) | 0.5 µg/mL (≈ 1.6 µM) | 0.125 µg/mL (≈ 0.399 µM) | 0.5 µg/mL (≈ 1.6 µM) | 0.25 µg/mL (≈ 0.798 µM) | 0.5 µg/mL (≈ 1.6 µM) | Non-toxic | 0.5 µg/mL (≈ 1.6 µM) | Non-toxic
CN(C)c1ccc(/C=N/NC(=O)c2cn3c(n2)CCCC3)cc1 | > 0.25 µg/mL | Non-toxic | > 0.25 µg/mL | Non-toxic | 0.125 µg/mL (≈ 0.401 µM) | Non-toxic | > 0.25 µg/mL | > 0.25 µg/mL | 0.125 µg/mL (≈ 0.401 µM) | > 0.25 µg/mL | > 0.25 µg/mL | > 0.25 µg/mL | Non-toxic | > 0.25 µg/mL | Non-toxic
O=C(N/N=C/c1ccc(Br)cc1)c1cn2c(n1)CCCC2 | 1 µg/mL (≈ 2.88 µM) | Non-toxic | 1 µg/mL (≈ 2.88 µM) | Non-toxic | 0.5 µg/mL (≈ 1.44 µM) | Non-toxic | 0.125 µg/mL (≈ 0.36 µM) | 0.25 µg/mL (≈ 0.72 µM) | 1 µg/mL (≈ 2.88 µM) | 0.5 µg/mL (≈ 1.44 µM) | 0.25 µg/mL (≈ 0.72 µM) | 0.5 µg/mL (≈ 1.44 µM) | Non-toxic | 1 µg/mL (≈ 2.88 µM) | Non-toxic
O=C(N/N=C/c1ccc(Cl)cc1)c1cn2c(n1)CCCC2 | 0.5 µg/mL (≈ 1.65 µM) | Non-toxic | > 0.25 µg/mL | Non-toxic | > 0.25 µg/mL | Non-toxic | 0.5 µg/mL (≈ 1.65 µM) | > 0.25 µg/mL | 0.125 µg/mL (≈ 0.413 µM) | > 0.25 µg/mL | 0.125 µg/mL (≈ 0.413 µM) | 0.5 µg/mL (≈ 1.65 µM) | Non-toxic | > 0.25 µg/mL | Non-toxic
O=C(N/N=C/c1ccc2c(c1)OCO2)c1cn2c(n1)CCCC2 | > 0.25 µg/mL | Non-toxic | > 0.25 µg/mL | Non-toxic | 0.125 µg/mL (≈ 0.4 µM) | Non-toxic | > 0.25 µg/mL | > 0.25 µg/mL | 0.063 µg/mL (≈ 0.202 µM) | > 0.25 µg/mL | > 0.25 µg/mL | > 0.25 µg/mL | Non-toxic | 0.125 µg/mL (≈ 0.4 µM) | Non-toxic
N#Cc1ccc(/C=N/NC(=O)c2cn3c(n2)CCCC3)cc1 | 0.032 µg/mL (≈ 0.109 µM) | Non-toxic | 0.032 µg/mL (≈ 0.109 µM) | Non-toxic | < 0.016 µg/mL | Non-toxic | 0.032 µg/mL (≈ 0.109 µM) | < 0.016 µg/mL | 0.032 µg/mL (≈ 0.109 µM) | 0.032 µg/mL (≈ 0.109 µM) | 0.032 µg/mL (≈ 0.109 µM) | 0.063 µg/mL (≈ 0.215 µM) | Non-toxic | 0.032 µg/mL (≈ 0.109 µM) | Non-toxic
Clc1ccccc1C(c1ccccc1)(c1ccccc1)n1ccnc1 [CLOTRIMAZOLE] | < 0.08 µg/mL | Non-toxic | 0.125 µg/mL (≈ 0.362 µM) | Non-toxic | 0.032 µg/mL (≈ 0.0928 µM) | Non-toxic | < 0.08 µg/mL | < 0.08 µg/mL | < 0.08 µg/mL | < 0.08 µg/mL | < 0.08 µg/mL | < 0.08 µg/mL | Non-toxic | < 0.08 µg/mL | Non-toxic
COC1=CC(=O)C[C@@H](C)[C@]12Oc1c(Cl)c(OC)cc(OC)c1C2=O [GRISEOFULVIN] | 0.5 µg/mL (≈ 1.42 µM) | Non-toxic | 0.5 µg/mL (≈ 1.42 µM) | Non-toxic | 0.125 µg/mL (≈ 0.354 µM) | Non-toxic | – | 0.25 µg/mL (≈ 0.709 µM) | 0.25 µg/mL (≈ 0.709 µM) | 0.25 µg/mL (≈ 0.709 µM) | 0.125 µg/mL (≈ 0.354 µM) | – | Non-toxic | 0.5 µg/mL (≈ 1.42 µM) | Non-toxic
CC(=O)N1CCN(c2ccc(OCC3COC(Cn4ccnc4)(c4ccc(Cl)cc4Cl)O3)cc2)CC1 (stereo not drawn) [KETOCONAZOLE] | 0.032 µg/mL (≈ 0.0602 µM) | Non-toxic | 0.5 µg/mL (≈ 0.941 µM) | Non-toxic | 0.125 µg/mL (≈ 0.235 µM) | Non-toxic | 0.032 µg/mL (≈ 0.0602 µM) | 0.125 µg/mL (≈ 0.235 µM) | 0.063 µg/mL (≈ 0.119 µM) | 0.125 µg/mL (≈ 0.235 µM) | 0.032 µg/mL (≈ 0.0602 µM) | 0.063 µg/mL (≈ 0.119 µM) | Non-toxic | 0.125 µg/mL (≈ 0.235 µM) | Non-toxic
